From patent US20050119180A1, “Use of angiotensin 1-7 for enhancing cardiac function” (priority 2002, published 2005)

How the values were obtained:
[1] = system: male Sprague-Dawley rats with myocardial infarction (left coronary artery ligation); experiment: General characteristics and histology after eight weeks of treatment in rat coronary artery ligation (MI) model; format: in vivo
Protocol: (§1) The Animal Research Committee of the University of Groningen approved this study. Left coronary artery ligations were performed in 39 male Sprague-Dawley rats weighing 250 to 300 g (Harlan; Zeist, the Netherlands).^14 Perioperative mortality was 49%. Two weeks after induction of MI, rats were randomly allocated to intravenous infusion of either Ang-(1-7) (24 μg/kg per hour; n=10) or saline (n=10) by osmotic minipumps (Alzet 2004). Sham-operated controls (n=10) received saline. After eight weeks of treatment, hemodynamic studies were performed under isoflurane anesthesia with a microtip pressure transducer,^15 coronary flow was measured in a Langendorff setup,^14 endothelial function was tested in isolated aortic rings,^14 and plasma Ang-(1-7) levels were measured by radioimmunoassay.^16
Midventricular slices were processed for histochemical analysis. Infarct size was determined on picrosirius red/fast green-stained sections and was expressed as the percentage of scar length of total left ventricular circumference.^14 Rats with infarcts smaller than 20% were excluded (n=3 for Ang-(1-7) and n=1 for saline-treated rats). Capillary density was determined on sections stained with biotin-labeled Griffonia siinplicifolia lectin I (GSL-I) and hematoxylin and was expressed as the number of capillaries per mm^2. Myocyte cross-sectional area was measured on hematoxylin/eosin-stained sections.
Data are presented as mean±SEM. Statistical analysis between the groups was performed by one-way ANOVA followed by Bonferroni's t test. Differences in dose-response curves were tested by ANOVA for repeated measures with Greenhouse-Geisser correction for asphericity. Differences were considered significant at P<0.05.

[2] = Plasma Ang-(1-7) levels by radioimmunoassay at end of intravenous infusion; format: in vivo, rat; conditions: MI rats, iv infusion 24 μg/kg per hour
Protocol: as §1

[3] = system: male Sprague-Dawley rats with myocardial infarction (left coronary artery ligation); experiment: In vivo hemodynamic studies under isoflurane anesthesia with microtip pressure transducer in MI rats; parameters: species or system rat
Protocol: as §1
(§2) After eight weeks of treatment, cardiac function was measured in vivo in anesthetized rats. […] Coronary flow was measured ex vivo in a Langendorff setup. […] Coronary endothelial function and maximal coronary flow were tested by a two-minute infusion of 3×10^−8 mol/L bradykinin and 10^−5 mol/L adenosine, respectively.

[4] = system: hearts of infarcted rats (Langendorff setup); experiment: Ex vivo coronary flow in a Langendorff setup, hearts of treated MI rats; parameters: species or system rat
Protocol: as §1, §2

[5] = system: isolated aortic rings of infarcted rats; experiment: Endothelium-dependent relaxation in isolated aortic rings of treated MI rats; format: in vivo, rat; conditions: aortic rings of MI rats after eight weeks of Ang-(1-7); P<0.05 versus MI control
Protocol: as §1
Endothelial dysfunction is a key feature in heart failure.^14 To examine the effects of Ang-(1-7) treatment on this aspect of cardiac failure, we investigated endothelium-dependent relaxation in isolated aortic rings. Phenylephrine elicited similar contractile responses in all three groups (data not shown). […] The relaxation in response to the endothelium independent vasodilator NaNO2 (10^−2 mol/L) was equal in the three groups (data not shown).

[6] = Ang-(1-7) 24 μg/kg per hour iv, eight weeks, mean ± SEM

Q: With CC[C@H](C)[C@H](NC(=O)[C@H](Cc1ccc(O)cc1)NC(=O)[C@@H](NC(=O)[C@H](CCCNC(=N)N)NC(=O)[C@@H](N)CC(=O)O)C(C)C)C(=O)N[C@@H](Cc1c[nH]cn1)C(=O)N1CCC[C@H]1C(=O)O [Ang-(1-7), angiotensin-(1-7)] as the compound, how does the capillary density ([1]; Ang-(1-7) 24 μg/kg per hour iv, eight weeks, GSL-I lectin stain, mean ± SEM) read?
A: 2578 ± 176 N/mm^2

Q: And the myocyte cross-sectional area ([1]; Ang-(1-7) 24 μg/kg per hour iv, eight weeks, hematoxylin/eosin-stained sections, mean ± SEM)?
A: 409 ± 21

Q: What about the “LVW/BW (left ventricular weight body weight ratio)” value [1, 6] of the same compound?
A: 3.42 ± 0.10 mg/g

Q: What about the “infarct size (percentage of scar length of total left ventricular circumference)” value [1, 6] of the same compound?
A: 29.6 ± 3.3%

Q: And the “myocyte cross-sectional area increase after infarction, in words” value ([1]; eight weeks of Ang-(1-7))?
A: attenuated to a nonsignificant level

Q: What about the “capillary density versus saline-treated MI group, in words” value ([1]; eight weeks of treatment) of the same compound?
A: did not differ

Q: And the “infarct size versus saline-treated MI group, in words” value ([1]; eight weeks of treatment)?
A: did not differ

Q: What about the “[Ang-(1-7)] plasma concentration of angiotensin-(1-7)” value ([2]; end of eight weeks of treatment, mean ± SEM) of the same compound?
A: 917.8 ± 194.1 pmol/L

Q: And the “increase of plasma levels of the peptide compared with MI controls” value ([2]; end of treatment)?
A: 40 fold

Q: What about the level at time molar at 1344 h ([2]; male, Sprague-Dawley, rat, plasma, 24 ug/kg per hour, end of eight weeks of treatment, mean ± SEM, read-out: [Ang-(1-7)] plasma concentration of angiotensin-(1-7)) of the same compound?
A: 0.918 ± 0.194 nM

Q: What about the “mean arterial pressure, in words” value ([3]; MI rats infused with Ang-(1-7), eight weeks) of the same compound?
A: an increase in mean arterial pressure was found

Q: What about the “reduction in left ventricular end-diastolic pressure” value ([3]; MI rats, eight weeks of Ang-(1-7) treatment) of the same compound?
A: 40%

Q: And the “cardiac function (hemodynamic parameters LVP, LVEDP, MAP, +dP/dt, −dP/dt) compared with sham, in words” value ([3]; anesthetized MI rats after eight weeks of treatment)?
A: none of these parameters were significantly deteriorated, except the systolic dP/dt

Q: And the “baseline coronary flow compared with sham-operated hearts, in words” value ([4]; Langendorff, MI rats after eight weeks of Ang-(1-7))?
A: almost completely preserved

Q: What about the “maximal coronary flow after adenosine infusion compared with sham, in words” value ([4]; Langendorff, adenosine 10^−5 mol/L, MI rats after eight weeks of Ang-(1-7)) of the same compound?
A: the difference did not reach statistical significance

Q: And the “bradykinin-dependent coronary flow compared with sham, in words” value ([4]; Langendorff, bradykinin 3×10^−8 mol/L, MI rats after eight weeks of Ang-(1-7))?
A: not significantly impaired

Q: What about the “Ex vivo coronary flow, baseline” value ([4]; hearts of MI rats after eight weeks of Ang-(1-7) 24 μg/kg per hour iv, baseline) of the same compound?
A: 8.2 ± 0.6 ml/min per g ventricular weight

Q: What about the “Ex vivo coronary flow, adenosine 10^−5 M” value ([4]; hearts of MI rats after eight weeks of Ang-(1-7), two-minute infusion of adenosine 10^−5 M (maximal coronary flow)) of the same compound?
A: 12.3 ± 0.8 ml/min per g ventricular weight

Q: What about the “Ex vivo coronary flow, bradykinin 3 × 10^−8 M” value ([4]; hearts of MI rats after eight weeks of Ang-(1-7), two-minute infusion of bradykinin 3 × 10^−8 M (coronary endothelial function)) of the same compound?
A: 11.1 ± 0.7 ml/min per g ventricular weight

Q: And the “metacholine-induced relaxation of phenylephrine pre-contracted aortic rings, in words” value [5]?
A: identical to sham rats
